Test results taken from ChEMBL document CHEMBL3751665, “Identification of a novel NAMPT inhibitor by combinatorial click chemistry and chemical refinement” (Medchemcomm, 2015).

Key:
SH-SY5Y [1] = experiment: Cytotoxicity against human SH-SY5Y cells assessed as cell viability at 10 uM after 48 hrs by MTT assay relative to control; assay type: functional; settings: read-out: Activity
SH-SY5Y [2] = experiment: Cytotoxicity against human SH-SY5Y cells assessed as cell viability at 1 uM after 48 hrs by MTT assay relative to control; assay type: functional; settings: read-out: Activity
[3] = biological target: Nicotinamide phosphoribosyltransferase (Mus musculus, UniProt Q99KQ4); experiment: Inhibition of recombinant mouse NAMPT expressed in bacteria assessed as reduction in NADH formation using [14C]NAM as substrate measured for 1 hr by coupled enzymatic assay
SH-SY5Y [4] = experiment: Cytotoxicity against human SH-SY5Y cells assessed as reduction in cell viability after 48 hrs by MTT assay; assay type: functional, cell-based
[5] = biological target: Nicotinamide phosphoribosyltransferase (Homo sapiens, UniProt P43490); experiment: Inhibition of NAMPT in human SH-SY5Y cells assessed as NAD depletion incubated for 16 hrs; assay type: cell-based
SH-SY5Y [6] = experiment: Cytotoxicity against human SH-SY5Y cells assessed as cell viability at 100 nM after 48 hrs by MTT assay relative to control; assay type: functional; settings: read-out: Activity

Sequence of Nicotinamide phosphoribosyltransferase (Homo sapiens, UniProt P43490) (P43490 whole entry): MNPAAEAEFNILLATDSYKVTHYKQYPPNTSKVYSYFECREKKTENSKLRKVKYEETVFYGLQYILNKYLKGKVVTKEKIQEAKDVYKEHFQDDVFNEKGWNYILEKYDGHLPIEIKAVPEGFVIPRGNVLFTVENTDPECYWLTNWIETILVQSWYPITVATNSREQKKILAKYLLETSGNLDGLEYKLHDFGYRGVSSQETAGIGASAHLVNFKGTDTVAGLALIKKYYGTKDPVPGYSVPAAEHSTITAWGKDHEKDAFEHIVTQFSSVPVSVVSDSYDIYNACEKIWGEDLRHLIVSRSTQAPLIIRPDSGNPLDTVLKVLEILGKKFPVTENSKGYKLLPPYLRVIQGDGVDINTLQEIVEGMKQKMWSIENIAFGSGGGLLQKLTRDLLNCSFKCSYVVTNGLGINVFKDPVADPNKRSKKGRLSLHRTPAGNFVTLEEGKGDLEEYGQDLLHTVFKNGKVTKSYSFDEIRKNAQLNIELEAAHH
Sequence of Nicotinamide phosphoribosyltransferase (Mus musculus, UniProt Q99KQ4) (Q99KQ4 whole entry): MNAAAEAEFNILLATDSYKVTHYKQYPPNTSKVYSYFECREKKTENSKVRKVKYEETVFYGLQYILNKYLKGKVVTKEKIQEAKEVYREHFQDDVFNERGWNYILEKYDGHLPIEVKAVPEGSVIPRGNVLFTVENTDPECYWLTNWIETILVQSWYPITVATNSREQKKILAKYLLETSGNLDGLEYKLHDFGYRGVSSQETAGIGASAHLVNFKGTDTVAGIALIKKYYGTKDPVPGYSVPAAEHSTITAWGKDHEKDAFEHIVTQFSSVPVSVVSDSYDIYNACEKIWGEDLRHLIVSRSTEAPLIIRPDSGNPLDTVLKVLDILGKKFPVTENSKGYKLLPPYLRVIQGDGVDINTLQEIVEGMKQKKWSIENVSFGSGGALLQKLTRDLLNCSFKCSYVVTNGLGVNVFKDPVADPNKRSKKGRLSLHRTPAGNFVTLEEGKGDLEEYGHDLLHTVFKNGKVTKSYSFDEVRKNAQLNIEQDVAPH

`CNCC(=O)N(CCn1cc(CCCCCCCC(=O)NCCc2cccnc2)nn1)Cc1ccccc1` was tested, and the viability at 10 µM (SH-SY5Y [1]) was 109%.

For `O=C(CCCCCc1cn(Cc2ccc(-c3ccccc3)cc2)nn1)NCCc1ccncc1`, the viability at 10 µM (SH-SY5Y [1]) was 100%.

`O=C(CCCCCc1cn(-c2ccccc2-c2ccccc2)nn1)NCCc1cccnc1` showed a viability at 1 µM (SH-SY5Y [2]) of 29.2%, an IC50 [3] of 170 nM and an EC50 (SH-SY5Y [4]) of 680 nM. The viability at 10 µM (SH-SY5Y [1]) was 25% and the IC50 [5] was 7.6 nM.

`O=C(CCCCCCCCc1cn(-c2ccc(N3CCOCC3)cc2)nn1)NCc1cccnc1` gave a viability at 1 µM (SH-SY5Y [2]) of 100% and a viability at 10 µM (SH-SY5Y [1]) of 74%.

For `O=C(CCCCCCCc1cn(-c2ccccc2CO)nn1)NCc1cccnc1`, the viability at 10 µM (SH-SY5Y [1]) was 96%.

`O=C(CCCCCCCc1cn(-c2ccccc2Cc2ccccc2)nn1)NCc1cccnc1` showed a viability at 10 µM (SH-SY5Y [1]) of 94%.

In the case of `O=C(CCCCCCCc1cn(-c2ccccc2-c2ccccc2)nn1)Nc1cccnc1`, the viability at 10 µM (SH-SY5Y [1]) is reported as 111%.

Compound `O=C(CCCCCCCc1cn(-c2ccccc2Cc2ccccc2)nn1)NCCc1cccnc1` has a viability at 10 µM (SH-SY5Y [1]) of 101%.

`O=C(CCCCCc1cn(-c2ccccc2-c2ccccc2)nn1)NCc1cccnc1` showed a viability at 1 µM (SH-SY5Y [2]) of 13.4%, an IC50 [3] of 267 nM and an EC50 (SH-SY5Y [4]) of 456 nM. It also gave a viability at 10 µM (SH-SY5Y [1]) of 12.5% and an IC50 [5] of 1.1 nM.

For `O=C(/C=C/c1cccnc1)NCCCCCc1cn(-c2ccccc2-c2ccccc2)nn1`, the viability at 1 µM (SH-SY5Y [2]) was 32%, the IC50 [3] was 114 nM and the viability at 0.1 µM (SH-SY5Y [6]) was 49%. The EC50 (SH-SY5Y [4]) was 20 nM and the IC50 [5] was 0.0509 nM.

`O=C(CCCCCCCCc1cn(-c2cnc3ccccc3c2)nn1)NCc1cccnc1` was tested, and the viability at 1 µM (SH-SY5Y [2]) was 102% and the viability at 10 µM (SH-SY5Y [1]) was 29%.

`O=C(CCCCCCCCc1cn(-c2cnc3ccccc3c2)nn1)Nc1ccncc1` showed a viability at 1 µM (SH-SY5Y [2]) of 104% and a viability at 10 µM (SH-SY5Y [1]) of 53%.

`O=C(Cc1cccnc1)NCCCCCc1cn(-c2ccccc2-c2ccccc2)nn1` was tested, and the viability at 1 µM (SH-SY5Y [2]) was 99% and the viability at 0.1 µM (SH-SY5Y [6]) was 106%.

For `O=C(CCc1cccnc1)NCCCCCc1cn(-c2ccccc2-c2ccccc2)nn1`, the viability at 1 µM (SH-SY5Y [2]) was 54% and the viability at 0.1 µM (SH-SY5Y [6]) was 112%.

`O=C(CCCCCCCCc1cn(-c2ccc(N3CCOCC3)cc2)nn1)Nc1ccncc1` showed a viability at 1 µM (SH-SY5Y [2]) of 93% and a viability at 10 µM (SH-SY5Y [1]) of 28%.

With `O=C(CCCCCCCc1cn(-c2ccc(N3CCOCC3)cc2)nn1)Nc1ccncc1` the viability at 10 µM (SH-SY5Y [1]) was 103%.

`O=C(CCCCCCc1cn(-c2ccccc2-c2ccccc2)nn1)NCc1cccnc1` was tested, and the viability at 1 µM (SH-SY5Y [2]) was 98% and the viability at 10 µM (SH-SY5Y [1]) was 47%.

For `O=C(CCCCCCCc1cn(-c2ccccc2-c2ccccc2)nn1)Nc1ccncc1`, the viability at 1 µM (SH-SY5Y [2]) was 82% and the viability at 10 µM (SH-SY5Y [1]) was 32%.

`O=C(CCCCCCCc1cn(-c2ccccc2Cc2ccccc2)nn1)NCCc1ccncc1` showed a viability at 10 µM (SH-SY5Y [1]) of 99%.

In the case of `O=C(CCCCCCCc1cn(-c2ccc(CN3CCOCC3)cc2)nn1)Nc1ccncc1`, the viability at 10 µM (SH-SY5Y [1]) is reported as 125%.

Work on `O=C(/C=C/c1cccnc1)NCCCCC1CCN(C(=O)c2ccccc2)CC1` [DAPORINAD] yielded an IC50 [3] of 61 nM and an EC50 (SH-SY5Y [4]) of 3.2 nM.
